EC50 data for 5 molecules are collected here from patent US9474790B2, “Stable, protracted GLP-1/glucagon receptor co-agonists for medical use” (Novo Nordisk A/S, priority 2013, dated 2016).

The experiment has as its target T1, human GLP-1 receptor (Homo sapiens, UniProt P43220).
T1 construct: expressed in transfected cells; host or cells: BHK cells (parent BHKTS13), clone FCW467-12A/KZ10-1, with CRE luciferase
The experiment is described as follows: GLP-1 receptor potency, CRE luciferase reporter gene assay in BHK cells. Type of experiment: cell-based. Particulars: BHK cells expressing human GLP-1 receptor, read-out: EC50 GLP-1R. An outline of the steps:
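Potency as cAMP-driven firefly luciferase signal after 3 h, 37° C exposure to 10-fold dilutions (final 1×10EE-13–1×10EE-6 M). Stable hGLP-1R/CRE-luc BHK clone, 5×10EE3 cells/well, medium containing 2% ovalbumin and 0.2% Pluronic F-68; EC50 (pM) from variable-slope non-linear regression.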
(In a reporter assay the amount or activity of a reporter protein is the signal.)

Numbered stars: 1 amine (or outer) side, 2 acyl side, 3 side chain; on linkers, the order of the positions; unused ones are H or OH. Square brackets hold non-standard residues; d marks the D form. Side chains are listed from the residue outwards. Peptide text beside a SMILES is read from it. * marks the point of attachment. C18 diacid = O=C(O)CCCCCCCCCCCCCCCCC(=O)*; γGlu = O=C(O)[C@H](CCC(=O)[*:2])N[*:1]; Ac4c = NC1(C(=O)O)CCC1; AEEA = NCCOCCOCC(=O)O; Aib = CC(C)(N)C(=O)O

T1 sequence (P43220 24-463): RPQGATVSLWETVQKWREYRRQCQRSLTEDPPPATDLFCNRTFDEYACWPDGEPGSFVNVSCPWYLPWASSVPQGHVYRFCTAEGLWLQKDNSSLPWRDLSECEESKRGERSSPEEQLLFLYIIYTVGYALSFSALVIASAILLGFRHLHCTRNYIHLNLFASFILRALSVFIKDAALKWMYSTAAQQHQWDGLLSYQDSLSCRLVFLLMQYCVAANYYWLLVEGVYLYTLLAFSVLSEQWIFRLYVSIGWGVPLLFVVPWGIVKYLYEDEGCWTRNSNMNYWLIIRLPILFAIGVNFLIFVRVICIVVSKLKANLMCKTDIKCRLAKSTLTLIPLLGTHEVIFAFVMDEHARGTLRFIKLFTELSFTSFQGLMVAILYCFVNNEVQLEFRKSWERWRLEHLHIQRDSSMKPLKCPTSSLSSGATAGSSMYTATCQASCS

As for `CC(C)C[C@H](NC(=O)[C@H](CC(=O)O)NC(=O)[C@H](CC(C)C)NC(=O)[C@H](Cc1ccc(O)cc1)NC(=O)[C@H](CCCCN)NC(=O)[C@H](CO)NC(=O)[C@H](CC(C)C)NC(=O)[C@H](CC(=O)O)NC(=O)[C@H](CO)NC(=O)[C@@H](NC(=O)[C@H](Cc1ccccc1)NC(=O)[C@@H](NC(=O)CNC(=O)[C@H](CCC(N)=O)NC(=O)C1(NC(=O)[C@@H](N)Cc2c[nH]cn2)CCC1)[C@@H](C)O)[C@@H](C)O)C(=O)N[C@@H](CCCNC(=N)N)C(=O)N[C@@H](CCCNC(=N)N)C(=O)N[C@@H](C)C(=O)N[C@@H](CCCNC(=N)N)C(=O)N[C@@H](CCC(=O)O)C(=O)N[C@@H](Cc1ccccc1)C(=O)N[C@H](C(=O)N[C@@H](CCC(N)=O)C(=O)N[C@@H](Cc1c[nH]c2ccccc12)C(=O)N[C@@H](CC(C)C)C(=O)N[C@@H](CC(C)C)C(=O)N[C@@H](CCCCNC(=O)CC[C@H](NC(=O)CC[C@H](NC(=O)COCCOCCNC(=O)COCCOCCNC(=O)CC[C@H](NC(=O)CC[C@H](NC(=O)CCCCCCCCCCCCCCCCC(=O)O)C(=O)O)C(=O)O)C(=O)O)C(=O)O)C(=O)N[C@H](C(N)=O)[C@@H](C)O)C(C)C` [Example 49, N^ε28-[(4S)-4-carboxy-4-[[(4S)-4-carboxy-4-[[2-[2-[2-[[2-[2-[2-[[(4S)-4-carboxy-4-[[(4S)-4-carboxy-4-(17-carboxyheptadecanoylamino)butanoyl]amino]butanoyl]amino]ethoxy]ethoxy]acetyl]amino]ethoxy]ethoxy]acetyl]amino]butanoyl]amino]butanoyl]-[Acb2,Leu10,Leu16,Arg20,Glu21,Leu27,Lys28]-Glucagon amide] (H-H[Ac4c]QGTFTSDLSKYLDLRRAREFVQWLLK([γGlu-γGlu-AEEA-AEEA-γGlu-γGlu-C18 diacid])T-NH2; N-terminus assumed), the concentration giving a half-maximal response (EC50) turned out to be 17 pM.

Turning to `CC(C)C[C@H](NC(=O)[C@H](Cc1c[nH]c2ccccc12)NC(=O)[C@H](CCC(N)=O)NC(=O)[C@@H](NC(=O)[C@H](Cc1ccccc1)NC(=O)[C@H](CCC(=O)O)NC(=O)[C@H](CCCNC(=N)N)NC(=O)[C@H](C)NC(=O)[C@H](CCCNC(=N)N)NC(=O)[C@H](CCCNC(=N)N)NC(=O)C(C)(C)NC(=O)[C@H](CC(=O)O)NC(=O)[C@H](CC(C)C)NC(=O)[C@H](Cc1ccc(O)cc1)NC(=O)[C@H](CCCCN)NC(=O)[C@H](CO)NC(=O)[C@H](CC(C)C)NC(=O)[C@H](CC(=O)O)NC(=O)[C@H](CO)NC(=O)[C@@H](NC(=O)[C@H](Cc1ccccc1)NC(=O)[C@@H](NC(=O)CNC(=O)[C@H](CCC(N)=O)NC(=O)C(C)(C)NC(=O)[C@@H](N)Cc1c[nH]cn1)[C@@H](C)O)[C@@H](C)O)C(C)C)C(=O)N[C@@H](CC(C)C)C(=O)N[C@@H](CCCCNC(=O)CC[C@H](NC(=O)CC[C@H](NC(=O)COCCOCCNC(=O)COCCOCCNC(=O)CC[C@H](NC(=O)CCCCCCCCCCCCCCCCC(=O)O)C(=O)O)C(=O)O)C(=O)O)C(=O)N[C@H](C(N)=O)[C@@H](C)O` [Example 51, N^ε28-[(4S)-4-carboxy-4-[[(4S)-4-carboxy-4-[[2-[2-[2-[[2-[2-[2-[[(4S)-4-carboxy-4-(17-carboxyheptadecanoylamino)butanoyl]amino]ethoxy]ethoxy]acetyl]amino]ethoxy]ethoxy]acetyl]amino]butanoyl]amino]butanoyl]-[Aib2,Leu10,Aib16,Arg20,Glu21,Leu27,Lys28]-Glucagon amide] (H-H[Aib]QGTFTSDLSKYLD[Aib]RRAREFVQWLLK([γGlu-γGlu-AEEA-AEEA-γGlu-C18 diacid])T-NH2; N-terminus assumed), the EC50 stood at 6 pM.

Regarding `CC(C)C[C@H](NC(=O)[C@H](Cc1ccc(O)cc1)NC(=O)[C@H](CCCCN)NC(=O)[C@H](CO)NC(=O)[C@H](CC(C)C)NC(=O)[C@H](CC(=O)O)NC(=O)[C@H](CO)NC(=O)[C@@H](NC(=O)[C@H](Cc1ccccc1)NC(=O)[C@@H](NC(=O)CNC(=O)[C@H](CCC(N)=O)NC(=O)C(C)(C)NC(=O)[C@@H](N)Cc1c[nH]cn1)[C@@H](C)O)[C@@H](C)O)C(=O)N[C@@H](CCC(=O)O)C(=O)N[C@@H](CO)C(=O)N[C@@H](CCCCN)C(=O)N[C@@H](CCCNC(=N)N)C(=O)N[C@@H](C)C(=O)N[C@@H](CCCNC(=N)N)C(=O)N[C@@H](CCC(=O)O)C(=O)N[C@@H](Cc1ccccc1)C(=O)N[C@H](C(=O)N[C@@H](CCC(N)=O)C(=O)N[C@@H](Cc1c[nH]c2ccccc12)C(=O)N[C@@H](CC(C)C)C(=O)N[C@@H](CC(C)C)C(=O)N[C@@H](CCCCNC(=O)CC[C@H](NC(=O)CC[C@H](NC(=O)[C@H](CO)NC(=O)[C@H](CCC(=O)O)NC(=O)[C@H](CO)NC(=O)CC[C@H](NC(=O)CC[C@H](NC(=O)CCCCCCCCCCCCCCCCC(=O)O)C(=O)O)C(=O)O)C(=O)O)C(=O)O)C(=O)N[C@H](C(N)=O)[C@@H](C)O)C(C)C` [Example 52] (H-H[Aib]QGTFTSDLSKYLESKRAREFVQWLLK([γGlu-γGlu-Ser-Glu-Ser-γGlu-γGlu-C18 diacid])T-NH2; N-terminus assumed), the EC50 is 4 pM. For the molecule `CC(C)C[C@H](NC(=O)[C@H](Cc1ccc(O)cc1)NC(=O)[C@H](CCCCN)NC(=O)[C@H](CO)NC(=O)[C@H](CC(C)C)NC(=O)[C@H](CC(=O)O)NC(=O)[C@H](CO)NC(=O)[C@@H](NC(=O)[C@H](Cc1ccccc1)NC(=O)[C@@H](NC(=O)CNC(=O)[C@H](CCC(N)=O)NC(=O)C(C)(C)NC(=O)[C@@H](N)Cc1c[nH]cn1)[C@@H](C)O)[C@@H](C)O)C(=O)N[C@@H](CCC(=O)O)C(=O)N[C@@H](CO)C(=O)N[C@@H](CCCCN)C(=O)N[C@@H](CCCNC(=N)N)C(=O)N[C@@H](C)C(=O)N[C@@H](CCCNC(=N)N)C(=O)N[C@@H](CCC(=O)O)C(=O)N[C@@H](Cc1ccccc1)C(=O)N[C@H](C(=O)N[C@@H](CCC(N)=O)C(=O)N[C@@H](Cc1c[nH]c2ccccc12)C(=O)N[C@@H](CC(C)C)C(=O)N[C@@H](CC(C)C)C(=O)N[C@@H](CCCCNC(=O)CC[C@H](NC(=O)CC[C@H](NC(=O)[C@H](CO)NC(=O)[C@H](CCC(=O)O)NC(=O)[C@H](CO)NC(=O)CC[C@H](NC(=O)CC[C@H](NC(=O)CCCCCCCCCCCCCCCCC(=O)O)C(=O)O)C(=O)O)C(=O)O)C(=O)O)C(=O)N[C@H](C(N)=O)[C@@H](C)O)C(C)C` [Example 54, N^ε28-[(4S)-4-carboxy-4-[[(4S)-4-carboxy-4-[[(2S)-2-[[(2S)-4-carboxy-2-[[(2S)-2-[[(4S)-4-carboxy-4-[[(4S)-4-carboxy-4-(17-carboxyheptadecanoylamino)butanoyl]amino]butanoyl]amino]-3-hydroxypropanoyl]amino]butanoyl]amino]-3-hydroxypropanoyl]amino]butanoyl]amino]butanoyl]-[Aib2,Leu10,Glu15,Lys17,Arg20,Glu21,Leu27,Lys28]-Glucagon amide] (H-H[Aib]QGTFTSDLSKYLESKRAREFVQWLLK([γGlu-γGlu-Ser-Glu-Ser-γGlu-γGlu-C18 diacid])T-NH2; N-terminus assumed), the EC50 stood at 2.7 pM.

With `CC(C)C[C@H](NC(=O)[C@H](Cc1ccc(O)cc1)NC(=O)[C@H](CCCNC(=N)N)NC(=O)[C@H](CO)NC(=O)[C@H](CC(C)C)NC(=O)[C@H](CC(=O)O)NC(=O)[C@H](CO)NC(=O)[C@@H](NC(=O)[C@H](Cc1ccccc1)NC(=O)[C@@H](NC(=O)CNC(=O)[C@H](CCC(N)=O)NC(=O)C1(NC(=O)[C@@H](N)Cc2c[nH]cn2)CCC1)[C@@H](C)O)[C@@H](C)O)C(=O)N[C@@H](CCC(=O)O)C(=O)N[C@@H](CO)C(=O)N[C@@H](CCCNC(=N)N)C(=O)N[C@@H](CCCNC(=N)N)C(=O)N[C@@H](C)C(=O)N[C@@H](CCCNC(=N)N)C(=O)N[C@@H](CCC(=O)O)C(=O)N[C@@H](Cc1ccccc1)C(=O)N[C@H](C(=O)N[C@@H](CCC(N)=O)C(=O)N[C@@H](Cc1c[nH]c2ccccc12)C(=O)N[C@@H](CC(C)C)C(=O)N[C@@H](CC(C)C)C(=O)N[C@@H](CCCCNC(=O)CC[C@H](NC(=O)CC[C@H](NC(=O)COCCOCCNC(=O)COCCOCCNC(=O)CC[C@H](NC(=O)CC[C@H](NC(=O)CCCCCCCCCCCCCCCCC(=O)O)C(=O)O)C(=O)O)C(=O)O)C(=O)O)C(=O)N[C@H](C(N)=O)[C@@H](C)O)C(C)C` [Example 59, N^ε28-[(4S)-4-carboxy-4-[[(4S)-4-carboxy-4-[[2-[2-[2-[[2-[2-[2-[[(4S)-4-carboxy-4-[[(4S)-4-carboxy-4-(17-carboxyheptadecanoylamino)butanoyl]amino]butanoyl]amino]ethoxy]ethoxy]acetyl]amino]ethoxy]ethoxy]acetyl]amino]butanoyl]amino]butanoyl]-[Acb2,Leu10,Arg12,Glu15,Arg20,Glu21,Leu27,Lys28]-Glucagon amide] (H-H[Ac4c]QGTFTSDLSRYLESRRAREFVQWLLK([γGlu-γGlu-AEEA-AEEA-γGlu-γGlu-C18 diacid])T-NH2; N-terminus assumed), the EC50 was 4 pM.

What is called EC50 is the concentration at which the effect is half-maximal.
